ChEMBL document CHEMBL1201862, “PubChem BioAssay data set” (2004)
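Dose response: 5 concentrations. Exposure: 48 h. Format: 96-well plates. Endpoint: linear interpolation; highest concentration if not reached. The concentration for 50% growth inhibition is given as GI50.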 Active and inactive are the calls of the source. Rule as the data show it: active = GI50 up to about 1.1 µM and inactive = higher.

How the values were obtained:
Test in all cases: NCI-60 cell line screen, 48 h
[1] = system: BT-549
[2] = system: DU-145
[3] = system: HCT-15
[4] = system: HOP-92
[5] = system: HT-29
[6] = system: M14
[7] = system: MCF7
[8] = system: NCI-H522
[9] = system: NCI/ADR-RES
[10] = system: OVCAR-4
[11] = system: OVCAR-5
[12] = system: OVCAR-8
[13] = system: RPMI-8226
[14] = system: SK-MEL-28
[15] = system: SK-OV-3
[16] = system: SNB-19
[17] = system: T47D
[18] = system: CCRF-CEM
[19] = system: MDA-N
[20] = system: TK-10

Row | SMILES | GI50 [1] | GI50 [2] | GI50 [3] | GI50 [4] | GI50 [5] | GI50 [6] | GI50 [7] | GI50 [8] | GI50 [9] | GI50 [10] | GI50 [11] | GI50 [12] | GI50 [13] | GI50 [14] | GI50 [15] | GI50 [16] | GI50 [17] | GI50 [18] | GI50 [19] | GI50 [20]
1 | ON(CCc1ccncc1)Cc1ccccc1 | > 100 µM (inactive) | > 100 µM (inactive) | > 100 µM | > 100 µM (inactive) | > 100 µM (inactive) | > 100 µM (inactive) | > 100 µM (inactive) | > 100 µM (inactive) | > 100 µM (inactive) | > 100 µM (inactive) | > 100 µM (inactive) | > 100 µM (inactive) | > 100 µM (inactive) | > 100 µM (inactive) | > 100 µM (inactive) | > 100 µM (inactive) | > 100 µM (inactive) | – | – | –
2 | COc1ccc(-c2nc(O)c3ccccc3n2)c(OC)c1 | > 100 µM (inactive) | > 100 µM (inactive) | > 100 µM | – | > 100 µM (inactive) | > 100 µM (inactive) | > 100 µM (inactive) | – | > 100 µM (inactive) | > 100 µM (inactive) | > 100 µM (inactive) | > 100 µM (inactive) | 29.1 µM (inactive) | – | > 100 µM (inactive) | > 100 µM (inactive) | > 100 µM (inactive) | > 100 µM (inactive) | > 100 µM (inactive) | –
3 | CCOc1cc2c(cc1O)/C(=N\O)C[C@@H]1[C@@H]2CC[C@]2(C)[C@@H](O)CC[C@@H]12 | 0.0371 µM (active) | < 0.0197 µM (active) | < 0.0199 µM | 0.00782 µM (active) | 6.71 µM (inactive) | 0.0144 µM (active) | < 0.0195 µM (active) | < 0.0182 µM (active) | < 0.0276 µM (active) | 6.34 µM (inactive) | 5.85 µM (inactive) | < 0.028 µM (active) | 0.0238 µM (active) | < 0.0276 µM (active) | 0.0374 µM (active) | < 0.01 µM (active) | – | – | 0.0123 µM (active) | 29.6 µM (inactive)
4 | O=C(Cc1ccccc1CCO)NCCc1ccccc1 | > 100 µM (inactive) | > 100 µM (inactive) | > 100 µM | > 100 µM (inactive) | > 100 µM (inactive) | > 100 µM (inactive) | > 100 µM (inactive) | > 100 µM (inactive) | > 100 µM (inactive) | > 100 µM (inactive) | > 100 µM (inactive) | > 100 µM (inactive) | > 100 µM (inactive) | > 100 µM (inactive) | > 100 µM (inactive) | > 100 µM (inactive) | > 100 µM (inactive) | > 100 µM (inactive) | – | > 100 µM (inactive)
5 | N#C[C@H](C(=O)c1ccccc1F)c1nc2ccccc2s1 | 46.6 µM (inactive) | 42.6 µM (inactive) | 54.5 µM | 48.1 µM (inactive) | 28.1 µM (inactive) | 21.8 µM (inactive) | – | 15.5 µM (inactive) | 26.9 µM (inactive) | – | 31 µM (inactive) | 25.1 µM (inactive) | 22.5 µM (inactive) | 36.5 µM (inactive) | 21.1 µM (inactive) | 27.5 µM (inactive) | 34.8 µM (inactive) | 23.4 µM (inactive) | 38.3 µM (inactive) | > 100 µM (inactive)
6 | COc1ccc(NC(=O)C2=C(SC)C(=O)N=C2N)cc1 | > 100 µM (inactive) | > 100 µM (inactive) | > 100 µM | > 100 µM (inactive) | > 100 µM (inactive) | – | – | – | > 100 µM (inactive) | > 100 µM (inactive) | – | > 100 µM (inactive) | > 100 µM (inactive) | > 100 µM (inactive) | > 100 µM (inactive) | > 100 µM (inactive) | > 100 µM (inactive) | > 100 µM (inactive) | – | > 100 µM (inactive)
7 | O=C1/C(=C/c2ccc(O)c(CN3CCCCC3)c2)CCC/C1=C\c1ccc(O)c(CN2CCCCC2)c1 | 10.4 µM (inactive) | 4.4 µM (inactive) | 5.37 µM | 4.26 µM (inactive) | 1.51 µM (inactive) | 16.1 µM (inactive) | 3.26 µM (inactive) | – | 2.89 µM (inactive) | 6.81 µM (inactive) | 29.6 µM (inactive) | 4.48 µM (inactive) | 6.85 µM (inactive) | 13.3 µM (inactive) | 8.53 µM (inactive) | 5.04 µM (inactive) | 17.5 µM (inactive) | 3.32 µM (inactive) | 4.66 µM (inactive) | 6.17 µM (inactive)
8 | Cc1ccc(O)c(-c2cscn2)c1 | 74.5 µM (inactive) | – | 31.6 µM | 43.7 µM (inactive) | 62.5 µM (inactive) | 54.2 µM (inactive) | 39.9 µM (inactive) | – | 51.9 µM (inactive) | 54 µM (inactive) | 11.2 µM (inactive) | 42.9 µM (inactive) | 36 µM (inactive) | – | 32.6 µM (inactive) | 25.1 µM (inactive) | – | 0.37 µM (active) | 40.2 µM (inactive) | 44.8 µM (inactive)
